What was measured:
Assay type in all cases: cell-based
[1] = system: human CD4+ and CD8+ T cells; assay: Expansion of de-differentiated T cells in Th1, TREG or hybrid Th2/TREG polarization with or without pemetrexed
Experimental: Human CD4^+ and CD8^+ T cells were subjected to a 3-day de-differentiation procedure (“STEP 1”). […] In addition, the T cell culture in the presence of the variable polarization conditions was performed without the novel inhibitory molecule, pemetrexed (“0”) or in the presence of variable concentrations of pemetrexed, as indicated (10 nM [“10”]; 33 nM [“33”]; or 100 nM [“100”]. After a total of 10 days of culture, the n=24 cultures were harvested and live cells were enumerated and graphed above (y-axis indicated number of cells × 10^6; input cell number was 1.5 × 10^6 cells).

[2] = system: human CD4+ and CD8+ T cells; assay: Flow cytometry of FOXP3, Tbet, GATA3 in extended hybrid Th2/TREG culture (days 12, 20, 32)
From the text: To evaluate these transcription factors in our manufacturing method, T cells were first subjected to the step 1 de-differentiation procedure and then re-differentiated in the hybrid TREG-Th2 culture condition (IL-2, TGF-β, and IL-4). In addition, we compared the effects of pemetrexed with a classical mTOR inhibitor.
The iTREG phenotype is considered to be unstable; as such, we evaluated the stability of T cells re-differentiated using the hybrid TREG-Th2 culture condition at delayed time points, including days 20 and 32 of culture. In addition, to test phenotype stability in a rigorous manner, between day 24 and day 32 of culture, T cells received a high level of co-stimulation (3:1 bead-to-T cell ratio) and were propagated in media without cytokines or pharmacologic agents.
FIGS. 19A-19D illustrate that extended culture of de-differentiated T cells in the hybrid Th2/TREG polarization condition containing pemetrexed results in the generation of CD4^+ T cells expressing FOXP3 and GATA3 transcription factors. […] At days 12, 20, and 32 of culture, T cells were harvested and subjected to surface flow cytometry (CD4 marker) and intra-cellular staining for the following transcription factors, FOXP3, Tbet, and GATA3. The data above show the percent CD4 cells out of the total cultured population (FIG. 19A); the percent of CD4 cells that expressed the TREG transcription factor FOXP3 (FIG. 19B); the percent of CD4 cells that expressed the Th1 transcription factor Tbet (FIG. 19C); and the percent of CD4 cells that expressed the Th2 transcription factor GATA3 (FIG. 19D).
FIGS. 20A-20D illustrate that extended culture of de-differentiated T cells in the hybrid Th2/TREG polarization condition containing pemetrexed results in the generation of CD8^+ T cells expressing FOXP3 and GATA3 transcription factors. […] At days 12, 20, and 32 of culture, T cells were harvested and subjected to surface flow cytometry (CD8 marker) and intra-cellular staining for the following transcription factors, FOXP3, Tbet, and GATA3. […]

[3] = system: human CD4+ and CD8+ T cells; assay: Luminex cytokine secretion in extended hybrid Th2/TREG culture (days 12, 20, 32); conditions: for ability of T cells to secrete IL-5 / ability of T cells to secrete IL-13: inhibitor in TREG-Th2 re-differentiation culture: temsirolimus 1.0 µM or pemetrexed 10 nM
From the text: (§1) FIGS. 21A-21D illustrates that extended culture of de-differentiated T cells in the hybrid Th2/TREG polarization condition results in the generation of T cells expressing with a predominant Th2 cytokine phenotype: IL-4, IL-5, and IL-13 secretion. […] At days 12, 20, and 32 of culture, the T cells were harvested, washed, and restimulated with 3/28 beads (3:1 ratio) for 24 hr; the resultant supernatant was harvested and tested for cytokine content by Luminex multi-analyte method. All results shown are expressed as cytokine level in pg per ml per 1 × 10^6 cells/ml/24 hr. The Th2 cytokine IL-10 was also evaluated: all values were less than 20 pg/ml per 1 × 10^6 cells/ml/24 hr.
as §1, with “22A-22D illustrate” for “21A-21D illustrates”, “IL-2, IFN-γ,” for “IL-4, IL-5,”, “GM-CSF” for “IL-13”, “inflammatory cytokines IL-17 and TNF-α were” for “Th2 cytokine IL-10 was”

[4] = system: human CD4+ and CD8+ T cells; assay: RNA expression analysis (Luminex Quantigene) after 3-day de-differentiation culture; conditions: relative to control Th1/Tc1 culture, temsirolimus 1 µM
Experimental: At the end of the de-differentiation interval, cells were harvested, RNA was isolated, and RNA expression analysis was performed by Luminex Quantigene method. All results shown represent relative RNA expression, with results normalized to a value of 1.0 for the Th1/Tc1 control culture.

[5] = system: human CD4+ and CD8+ T cells; assay: Western blot for mTORC1 complex protein Raptor after 3-day de-differentiation culture
From the text: After the 3-day culture interval, the T cells were harvested, and protein was isolated and subjected to western blot analysis for the mTORC1 complex protein, Raptor, and the housekeeping gene, Actin.

[6] = system: human CD4+ and CD8+ T cells; assay: Western blot for Raptor, Rictor, p70S6K, SGK1 after 3-day de-differentiation culture; conditions: relative to control culture without the three inhibitors; temsirolimus 1 µM, Vitamin D 0.03-1.0 nM, Daclizumab 50 µg/ml
From the text: After the 3-day culture interval, the T cells were harvested, and protein was isolated and subjected to western blot analysis for the mTORC1 complex protein, Raptor; the mTORC2 complex protein, Rictor; the post-mTORC1 protein p70S6K; the post-mTORC2 protein, SGK1; and the housekeeping gene, GAPDH.

[7] = system: human CD4+ and CD8+ T cells; assay: T cell yield at day 13 after de-differentiation interval and re-stimulation without inhibitors; conditions: column #7; temsirolimus reduced to 0.1 µM
Experimental: After 10 days (13 days of total culture), the T cells were harvested, enumerated, and evaluated by flow cytometry. FIG. 8 illustrates the effect of culture components during the de-differentiation interval on subsequent T cell yield (at day 13 of culture). […] After the 3-day interval, media was exchanged to fresh X-Vivo 20 without inhibitors, high-level co-stimulation was provided (3:1 bead-to-T cell ratio), and the T cell growth cytokines IL-2 (100 IU/ml) and IL-7 (10 ng/ml) were added. At day 13 of culture, viable T cells were enumerated and the overall yield is shown relative to day 0 input number.

[8] = system: human CD4+ and CD8+ T cells; assay: Western blot for pro-apoptosis molecule BIM after 3-day de-differentiation culture; conditions: 1:3 bead-to-T cell ratio; temsirolimus, Vitamin D 0.1 nM, Daclizumab 50 µg/ml
From the text: After the 3-day culture interval, the T cells were harvested, and protein was isolated and subjected to western blot analysis for the pro-apoptosis-related gene, BIM, and the housekeeping gene, Actin.

[9] = 3-day culture, bead-to-T cell ratio 1:3, Vitamin D 0.1 or 1.0 nM

Q: How did the “T cell number after re-differentiation in pure TREG polarization (IL-2 plus TGF-β without IL-4)” value ([1]; most stringent step 1, cultures #20 and #21, in the presence of pemetrexed) turn out when `Nc1nc2[nH]cc(CCc3ccc(C(=O)N[C@@H](CCC(=O)O)C(=O)O)cc3)c2c(=O)[nH]1` [pemetrexed] was run?
A: The value was “unsuccessful”.

Q: And the “T cell number after re-differentiation in TREG-Th2 polarization” value ([1]; step 1 temsirolimus, vitamin D, anti-IL-2 receptor antibody, pemetrexed 10 nM in step 2, 10 days)?
A: Its value is “sufficient T cells”.

Q: And the “CD4 cells expressing GATA3” value ([2]; end of culture, hybrid condition with pemetrexed 10 nM versus no inhibitor or temsirolimus)?
A: The value was “highest end-of-culture Th2-associated GATA3 expression”.

Q: What about the “CD8+ T cells expressing TBET” value ([2]; hybrid condition in the presence of pemetrexed 10 nM) of the same molecule?
A: The value was “lowest levels”.

Q: What about the “CD4 cells expressing TBET” value ([2]; hybrid polarization condition with pemetrexed 10 nM versus no inhibitor or temsirolimus) of the same molecule?
A: Its value is “most consistently reduced TBET values”.

Q: What about the GM-CSF secretion ([3]; TREG-Th2 hybrid culture supplemented with pemetrexed 10 nM) of the same molecule?
A: Its GM-CSF secretion is “higher degree”.

Q: What about the “ability of T cells to secrete IL-5” value [3] of the same molecule?
A: The value was “fully preserved”.

Q: What about the “ability of T cells to secrete IL-13” value [3] of the same molecule?
A: The value was “fully preserved”.

Q: Which “Granzyme B RNA expression” value [4, 9] does the source give for `CO[C@H]1C[C@@H]2CC[C@@H](C)[C@@](O)(O2)C(=O)C(=O)N2CCCC[C@H]2C(=O)O[C@H]([C@H](C)C[C@@H]2CC[C@@H](OC(=O)C(C)(CO)CO)[C@H](OC)C2)CC(=O)[C@H](C)/C=C(\C)[C@@H](O)[C@@H](OC)C(=O)[C@H](C)C[C@H](C)/C=C/C=C/C=C/1C` [temsirolimus] here?
A: The value was “reduction”.

Q: And the “IFN-gamma RNA expression” value [4, 9]?
A: Its value is “reduction”.

Q: What about the “IL-10 RNA expression” value [4, 9] of the same molecule?
A: The value was “reduction”.

Q: What about the “IL-7 receptor alpha RNA expression” value ([4]; Vitamin D 1.0 nM) of the same molecule?
A: Its value is “capable of up-regulating”.

Q: And the “KLF4 RNA expression” value ([4]; Vitamin D 1.0 nM)?
A: The value was “neither temsirolimus nor Vitamin D alone increased”.

Q: And the “KLF10 RNA expression” value ([4]; Vitamin D 1.0 nM)?
A: Its value is “acts alone to beneficially up-regulate”.

Q: What about the “HIF-1-α RNA expression” value ([4]; Vitamin D 0.1 to 1.0 nM) of the same molecule?
A: Its value is “did not down-regulate”.

Q: And the “Nanog transcription factor RNA expression” value ([4]; Vitamin D 0.1 to 1.0 nM)?
A: The value was “up-regulation”.

Q: What about the “STAT1 RNA expression” value ([4]; Vitamin D 0.1 to 1.0 nM) of the same molecule?
A: Its value is “acts alone to beneficially down-regulate”.

Q: And the “T-BET RNA expression” value ([4]; Vitamin D 0.1 to 1.0 nM)?
A: Its value is “acts alone to beneficially down-regulate”.

Q: What about the “Raptor expression at temsirolimus 0.3 µM” value ([5]; culture 9, temsirolimus 0.3 µM, versus 1.0 µM) of the same molecule?
A: Its value is “higher levels of Raptor expression”.

Q: And the “temsirolimus dose for optimal down-regulation of Raptor” value ([5]; in combination with Vitamin D)?
A: Its value is 1.0 µM.

Q: What about the “Rictor expression (western blot)” value [6] of the same molecule?
A: The value was “effective”.

Q: And the “T cell yield at day 13 with temsirolimus 0.1 µM” value [7]?
A: The value was “reduced the resultant T cell yield”.

Q: What about the “ability of T cells to secrete IL-5” value [3] of the same molecule?
A: The value was “blunted”.

Q: What about the “ability of T cells to secrete IL-13” value [3] of the same molecule?
A: The value was “blunted”.

B1: Daclizumab: anti-IL-2 receptor monoclonal antibody (antibody, chains of the INN, looked up, V domains shown)
VH: QVQLVQSGAEVKKPGSSVKVSCKASGYTFTSYRMHWVRQAPGQGLEWIGYINPSTGYTEYNQKFKDKATITADESTNTAYMELSSLRSEDTAVYYCARGGGVFDYWGQGTLVTVSS
VL: DIQMTQSPSTLSASVGDRVTITCSASSSISYMHWYQQKPGKAPKLLIYTTSNLASGVPARFSGSGSGTEFTLTISSLQPDDFATYYCHQRSTYPLTFGQGTKVEVK
Q: With B1 as the molecule, how does the “Raptor expression (western blot, normalized by actin)” value ([5]; 1:3 bead-to-T cell ratio, temsirolimus 1.0 µM, Vitamin D 0.1 nM, daclizumab 50 µg/ml) read?
A: Its value is “beneficial role in suppressing”.

Q: What about the “Rictor expression (western blot)” value [6] of the same molecule?
A: The value was “did not abrogate”.

Q: What about the “BIM expression (western blot, normalized by actin)” value [8] of the same molecule?
A: The value was “beneficial role in suppressing”.

From patent US20230270781A1, “TREATMENT OR PREVENTION OF PRO-INFLAMMATORY DISEASES OR CONDITIONS USING INDUCED REGULATORY T (ITREG) CELLS” (RAPA THERAPEUTICS, LLC, priority 2020, published 2023)
